Results from patent US9034323B2, “Method for control of post-prandial glucose” (Halozyme, Inc., priority 2008, dated 2015).
Like-named read-outs stand apart in the source and are kept apart here.

How the values were obtained:
[1] = system: dispersion of trypan blue dye; assay: Trypan blue dye dispersion assay in mice (Example 9); assay type: in vivo, NCr nu/nu homozygous mice; settings: for Dye Dispersion Areas: intradermal, trypan blue with 5 Units/mL Humulin insulin, enzyme 10 U/mL (Chondroitinase AC 1 U/mL, Strep lyase 100 U/mL), group mean; for increase in dye dispersion area compared to buffer only: mixed with trypan blue and Humulin insulin
Description: (§1) The ability of different hyaluronan degrading enzymes to act as a dispersion agent was assessed in vivo. A dispersion assay in mice was used to assess the ability of different hyaluronan degrading enzyme to act as dispersion agents of trypan blue, and also to assess the ability of the enzymes to enhance the efficacy of co-administered insulin in reducing blood glucose levels. The hyaluronan degrading enzymes assayed included rHuPH20, pegylated PH20 (PEG PH20), Hyal 1, Chondroitinase ABC, Chondroitinase AC and Streptomyces hyalurolyticus lyase. […] Both the area of dispersion of the trypan blue and the blood glucose levels were then measured. […] The ability of a low pH buffer (pH 4.5) to act as a dispersion agent also was examined.
(§2) Nine groups of NCr nu/nu homozygous mice, approximately 10 weeks of age and with body weights of 21-25 g, with 3 mice per group, were anesthetized by intraperitoneal injection of ketamine/xylazine (10:1 mixture in saline). […] The dispersion of the trypan blue dye was then measured by a caliper at 2.5, 5, 10, 15 and 20 minutes post injection. The dye dispersion area (mm^2) was calculated by multiplying the longest axis M1 (length of the dye front) and M2 (width of the dye front) by ¼π (M1M2×¼π). The blood glucose levels were measured using a glucometer at 0, 5, 10, 15 and 20 minutes

blood glucose = assay: Blood glucose levels in mice after intradermal Humulin insulin with hyaluronan degrading enzymes (Example 9); assay type: in vivo, NCr nu/nu homozygous mice; settings: for Blood Glucose Level: group mean
Description: as §1, §2

[2] = system: plasma glucose (glucose infusion rate to maintain 90-110 mg/dL); assay: Glucose infusion rate (GIR) pharmacodynamics, Hyperinsulinemic-Euglycemic Clamp (Example 1a); assay type: in vivo, human; settings: Mean
Description: The procedure consisted of initially obtaining the subject's weight and height and measuring the vital signs after resting in a sitting position for 5 minutes. Both arms were placed in heating pads to dilate the veins and IV catheters were then inserted. A catheter was placed into the antecubital vein of one arm for infusion of Dextrose 20% via two separate stop cocks. The other […] catheter was placed into the other arm for sampling of arterialized blood for glucose measurements. The heating pad can be removed from the glucose infusion site, but the retrograde catheter site was maintained at 65° C. An initial blood sample was obtained to measure baseline glucose 30 minutes before injection of the insulin preparations.

[3] = parameters: species or system Yucatan mini pigs; settings: pig, in vivo; for tmax: sc
Description: The pharmacokinetics (PK) of regular insulin, when subcutaneously administered at two different concentrations, both alone and co-administered with rHuPH20, was assessed in the porcine model described in Example 10, above. A multiple dose 4-way crossover design study was conducted to compare the PK of regular insulin at concentrations of 20 and 100 U/mL, when administered alone, to the same two concentrations after co-administration with rHuPH20. In each case, a total of 0.2 U/kg of insulin was administered.
Four test articles were prepared for dosing. […] The Insulin-PH20 U100 test article contained 3.69 mg/mL (100 U/mL) regular insulin (Lot # SIHR107; Diosynth Biotechnologies) and 20 μg/mL (approximately 2400 U/mL) rHuPH20 in 25 mM Tris, 120 mM NaCl, 0.01% Polysorbate 80, pH 7.3.
The group assignment was maintained for cycles 1 and 2.
The serum IRI concentrations were determined for each serum sample by interpolation from a standard curve using StatLIA® assay analysis software (Brendan Technologies, Carlsbad, Calif.). […] These baselines were then subtracted from the actual IRI concentrations measured at each timepoint to determine the baseline-adjusted IRI concentration.
Serum IRI versus time data were modeled by non-compartmental analysis using WinNonlin Professional model 200 (Version 5.2, Pharsight Corp., Mountain View, Calif.) and the PK parameters calculated. […] All analyses were performed using a mixed model with fixed effects for treatment. A compound symmetric covariance matrix among repeated observations for each animal was assumed. Analyses for Cmax and all AUC endpoints were performed using log-transformed values with values of zero replaced by 1 prior to log transformation (zero on the log scale). The time based endpoints were analyzed on the original linear scale.
N=16 pigs unless otherwise noted.

[4] = background, cited from earlier work
[5] = 5 min post injection, intradermal with 5 Units/mL Humulin insulin, enzyme 10 U/mL (Chondroitinase AC 1 U/mL, Strep lyase 100 U/mL)
[6] = 10 min post injection, intradermal with 5 Units/mL Humulin insulin, enzyme 10 U/mL (Chondroitinase AC 1 U/mL, Strep lyase 100 U/mL)
[7] = 15 min post injection, intradermal with 5 Units/mL Humulin insulin, enzyme 10 U/mL (Chondroitinase AC 1 U/mL, Strep lyase 100 U/mL)
[8] = 20 min post injection, intradermal with 5 Units/mL Humulin insulin, enzyme 10 U/mL (Chondroitinase AC 1 U/mL, Strep lyase 100 U/mL)

Chondroitinase ABC
Dye Dispersion Areas ([1]; 5 min post injection): 75.06 mm^2 | average dispersion area of trypan blue dye ([1]; 5 minutes after injection): ~75 mm^2 | Dye Dispersion Areas ([1]; 10 min post injection): 78.60 mm^2 | average dispersion area of trypan blue dye ([1]; 10 minutes after injection): ~79 mm^2 | Dye Dispersion Areas ([1]; 15 min post injection): 81.44 mm^2 | average dispersion area of trypan blue dye ([1]; 15 minutes after injection): ~81 mm^2 | Dye Dispersion Areas ([1]; 20 min post injection): 87.85 mm^2 | average dispersion area of trypan blue dye ([1]; 20 minutes after injection): ~88 mm^2 | average dispersion area of trypan blue dye ([1]; […] after injection): about 57 mm^2 | Dye Dispersion Areas ([1]; […] post injection): 56.85 mm^2 | increase in dye dispersion area compared to buffer only [1]: significant increase | Blood Glucose Level (blood glucose; 0 min (prior to injection)): 129.67 mg/dL | Blood Glucose Level (blood glucose; [5]): 123.67 mg/dL | Blood Glucose Level (blood glucose; [6]): 65.00 mg/dL | Blood Glucose Level (blood glucose; [7]): 44.67 mg/dL | Blood Glucose Level (blood glucose; [8]): 21.00 mg/dL | reduction of blood glucose levels compared with Humulin insulin alone (blood glucose; co-administered with Humulin insulin): appeared to reduce levels even faster

Humalog ® alone
GIR AUC 0-60 min ([2]; Dosing Sequence 1): 1910 min * mL/hr | GIR AUC 0-120 min ([2]; Dosing Sequence 1): 9860 min * mL/hr | GIR AUC 0-180 min ([2]; Dosing Sequence 1): 20700 min * mL/hr | GIR AUC 0-240 min ([2]; Dosing Sequence 1): 32580 min * mL/hr | GIR AUC 0-360 min ([2]; Dosing Sequence 1): 51650 min * mL/hr | tmax ([2]; Dosing Sequence 1): 185 | GIR AUC 0-60 min ([2]; Dosing Sequence 2): 2260 min * mL/hr | GIR AUC 0-120 min ([2]; Dosing Sequence 2): 9670 min * mL/hr | GIR AUC 0-180 min ([2]; Dosing Sequence 2): 19220 min * mL/hr | GIR AUC 0-240 min ([2]; Dosing Sequence 2): 29120 min * mL/hr | GIR AUC 0-360 min ([2]; Dosing Sequence 2): 44730 min * mL/hr | tmax ([2]; Dosing Sequence 2): 200 | GIR AUC 0-60 min ([2]; Dosing Sequence all): 2080 min * mL/hr | GIR AUC 0-120 min ([2]; Dosing Sequence all): 9760 min * mL/hr | GIR AUC 0-180 min ([2]; Dosing Sequence all): 19960 min * mL/hr | GIR AUC 0-240 min ([2]; Dosing Sequence all): 30850 min * mL/hr | GIR AUC 0-360 min ([2]; Dosing Sequence all): 48190 min * mL/hr | tmax ([2]; Dosing Sequence all): 193

Insulin 20 U
tmax [3]: 0.95 ± 0.7 h

Insulin 100 U
tmax [3]: 1.07 ± 0.817 h

Insulin U20: Humulin R insulin diluted 1:5 with sterile diluent to 20 U/mL
AUC0-15 [3]: 80 pmol·min/L | AUC0-30 [3]: 791 pmol·min/L | AUClast [3]: 20,820 pmol×min/L | tmax [3]: 0.95 h

Insulin U100: Undiluted Humulin R insulin, 100 U/mL
AUC0-15 [3]: 20 pmol·min/L | AUC0-30 [3]: 222 pmol·min/L | AUClast [3]: 9,021 pmol×min/L | tmax [3]: 1.07 h

detemir: Long-lasting insulin, an analog
Duration [4]: 28 h | Onset [4]: 4 to 6 h | Peak [4]: 18 to 28 h

insulin glargine
Duration [4]: 28 h | Onset [4]: 4 to 6 h | Peak [4]: 18 to 28 h

insulin glulisine
Duration [4]: 3 to 4 h | Peak [4]: 0.75 to 1.5 h | Onset ([4]; subcutaneous insulin): 0.083 to 0.25 h

B1: Hyal 1: Hyaluronan degrading enzyme; acid-active human hyaluronidase (protein, listed as Homo sapiens)
chain: MAAHLLPICALFLTLLDMAQGFRGPLLPNRPFTTVWNANTQWCLERHGVDVDVSVFDVVANPGQTFRGPDMTIFYSSQLGTYPYYTPTGEPVFGGLPQNASLIAHLARTFQDILAAIPAPDFSGLAVIDWEAWRPRWAFNWDTKDIYRQRSRALVQAQHPDWPAPQVEAVAQDQFQGAARAWMAGTLQLGRALRPRGLWGFYGFPDCYNYDFLSPNYTGQCPSGIRAQNDQLGWLWGQSRALYPSIYMPAVLEGTGKSQMYVQHRVAEAFRVAVAAGDPNLPVLPYVQIFYDTTNHFLPLDELEHSLGESAAQGAAGVVLWVSWENTRTKESCQAIKEYMDTTLGPFILNVTSGALLCSQALCSGHGRCVRRTSHPKALLLLNPASFSIQLTPGGGPLSLRGALSLEDQAQMAVEFKCRCYPGWQAPWCERKSMW
modifications: Hyaluronidase-1 [Precursor]
increase in dye dispersion area compared to buffer only [1]: no statistically significant increase

B2: Hyal I (protein, UniProt Q12794 22-435, looked up)
Hyaluronidase-1: FRGPLLPNRPFTTVWNANTQWCLERHGVDVDVSVFDVVANPGQTFRGPDMTIFYSSQLGTYPYYTPTGEPVFGGLPQNASLIAHLARTFQDILAAIPAPDFSGLAVIDWEAWRPRWAFNWDTKDIYRQRSRALVQAQHPDWPAPQVEAVAQDQFQGAARAWMAGTLQLGRALRPRGLWGFYGFPDCYNYDFLSPNYTGQCPSGIRAQNDQLGWLWGQSRALYPSIYMPAVLEGTGKSQMYVQHRVAEAFRVAVAAGDPNLPVLPYVQIFYDTTNHFLPLDELEHSLGESAAQGAAGVVLWVSWENTRTKESCQAIKEYMDTTLGPFILNVTSGALLCSQALCSGHGRCVRRTSHPKALLLLNPASFSIQLTPGGGPLSLRGALSLEDQAQMAVEFKCRCYPGWQAPWCERKSMW
Dye Dispersion Areas ([1]; 5 min post injection): 36.27 mm^2 | Dye Dispersion Areas ([1]; 10 min post injection): 39.60 mm^2 | Dye Dispersion Areas ([1]; 15 min post injection): 46.41 mm^2 | Dye Dispersion Areas ([1]; 20 min post injection): 48.21 mm^2 | Dye Dispersion Areas ([1]; […] post injection): 31.53 mm^2 | Blood Glucose Level (blood glucose; 0 min (prior to injection)): 155.67 mg/dL | Blood Glucose Level (blood glucose; [5]): 201.33 mg/dL | Blood Glucose Level (blood glucose; [6]): 144.33 mg/dL | Blood Glucose Level (blood glucose; [7]): 77.00 mg/dL | Blood Glucose Level (blood glucose; [8]): 52.67 mg/dL
